# Measurements from patent US20120016011A1, “RNA Interference Mediated Inhibition of Connective Tissue Growth Factor (CTGF) Gene Expression Using Short Interfering Nucleic Acid (siNA)” (Merck Sharp & Dohme Corp., priority 2009, published 2012).
# [invAb] = inverted abasic unit; m = 2'-O-methyl; r = 2'-OH (RNA); f = 2'-fluoro
# Key:
# [1] = tested on: CTGF mRNA; experiment: CTGF mRNA knockdown (Taqman RT-PCR) after siNA transfection of mouse NIH 3T3 cells; assay type: cell-based; conditions: mouse NIH3T3 cells, 10 nM siNA, 24 hrs, average of 3 experiments, vs non-targeting control
# Procedure, shortened: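 Mouse NIH 3T3 cells, 5000/well, transfected 24 h after plating with siNA at 10 nM final using RNAiMax, 24 h exposure without media change. CTGF mRNA by TaqMan RT-qPCR with GAPDH, knockdown via comparative Ct (2^−ΔΔCt) against non-targeting control siNA.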
# [2] = tested on: CTGF protein; experiment: CTGF Western Blot in siNA-transfected NHLF cells (6-well plate); assay type: cell-based, human; conditions: for Mean % KD (30 nM, 72 h) n = 5: CTGF protein; for Mean % KD (30 nM, 72 h) n = 5 / Density (CTGF)/Density (α-Tubulin) (3 pM, 72 hours) / Density (CTGF)/Density (α-Tubulin) (300 pM, 72 hours) / Density (CTGF)/Density (α-Tubulin) (30 nM, 72 hours): NHLF cells; for Density (CTGF)/Density (α-Tubulin) (3 pM, 72 hours) / Density (CTGF)/Density (α-Tubulin) (300 pM, 72 hours): n = 3, ratio ± S.D.; for Density (CTGF)/Density (α-Tubulin) (30 nM, 72 hours): n = 5, ratio ± S.D.; for % Protein Reduction at 30 nM (72 hrs): human NHLF cells, mean ± S.D.
# Protocol: NHLF cells were plated in 6-well plates at final counts of 70,000 cells/well in 2 ml of complete growth media. Transfection was performed using 2.5 uL of RNAiMax per well. Final concentration of siNAs was 30 nM (screen) and 30, 0.3, and 0.003 nM (dose response study). Protein lysates were harvested 24, 48, and 72 hours post-transfection (screen) and 72 hours post-transfection (dose response study). Protein lysates were prepared using Cell Extraction Buffer (Invitrogen, cat# FNN0011) according to manufacturer's instructions. Protein concentration was measured using a Bradford Quick Start Kit (Bio-Rad, cat# 500-0205).
# The protein source for the Western Blot experiments were from transfection of NHLF cells in a 6 well plate, as described above.
# Protein samples were diluted 1:1 in 2× Laemmli buffer with 5% β-mercapto-ethanol and incubated at 95° C. for 5 minutes. 40-50 ug of protein was loaded in each lane of 10% Tris-HCl gel. One lane was designated for MagicMark Protein Standard (Invitrogen # LC5602). The gel was run at 100V for approximately 2 hours. Protein was transferred to a PVDF membrane at 100V for 60 minutes. Once the transfer was finished, the membrane was blocked in 1% Casein in PBS (BioRad Cat#161-0783) for 1 hour on a plate rocker at room temperature followed by the overnight incubation at 4° C. with goat […] anti-CTGF primary antibody (Santa Cruz Biotechnology, cat# L-20) diluted 1:200 in 1% Casein in PBS. On the next day, the blot was washed 4×5 minutes in PBST (0.1% Tween-20 in PBS) solution and incubated for 30 minutes at room temperature with rabbit anti-goat secondary antibody (Pierce Biotechnology, cat# 31402) diluted 1:1,000 in 1% Casein in PBS. Then, the blot was washed 4×5 minutes with PBST and incubated for 1 minute with ECL Western Blotting Substrate (Pierce Biotechnology, Cat# 32106). The bands were visualized on the Bio-Rad VersaDoc Imager.
# The protein bands were quantified by computing their density which is defined by the ratio between the total intensity of all pixels and the area of the rectangle drawn around each band (intensity/mm^2). The density was calculated by the BioRad software.
# The level of protein was quantified using the Bio-Rad VersaDoc Imager according to the protocols of that piece of equipment. A pixel count was performed in each lane using an area of identical size. Each sample was then compared to the appropriate control treated sample and converted to a percent of protein remaining compared to control.
# The effects of lead siNAs on CTGF protein level were compared to the effects of the universal control using a two tail Student's T-test to obtain a P value. P<0.05 was considered significant.
# The densities of CTGF bands were normalized to the respective densities of α-Tubulin by calculating the ratio of the density of CTGF band and the density of α-Tubulin band. The ratios of the treatments were then compared to the ratio of the control group using an unpaired t-test with unequal variances.
Substance,% KD Mouse [1],"Mean % KD (30 nM, 72 h) n = 5 [2]","Density (CTGF)/Density (α-Tubulin) (3 pM, 72 hours) [2]","Density (CTGF)/Density (α-Tubulin) (300 pM, 72 hours) [2]","Density (CTGF)/Density (α-Tubulin) (30 nM, 72 hours) [2]",% Protein Reduction at 30 nM (72 hrs) [2]
"48047-DC: siNA duplex; sense SEQ ID NO: 59 B cGAGuAAuAuGccuGcuAu TTB; antisense SEQ ID NO: 60 AUAGcAGGcAuAuuAcucGUU (sense CGAGUAAUAUGCCUGCUAUTT; antisense AUAGCAGGCAUAUUACUCGUU; sense: DNA at AGT, 2'-fluoro at CU, [invAb] at 5' end, 3' end, backbone not given here; antisense: sugars from the 5' end rrrmfmmmfmfmffmfffmmm, backbone not given here)",18 ± 3%,58 ± 26%,0.51 ± 0.4,0.17 ± 0.1,0.22 ± 0.13,58 ± 26%
"48046-DC: siNA duplex; sense SEQ ID NO: 57 B cAcAGcAccAGAAuGuAuA TTB; antisense SEQ ID NO: 58 UAUAcAuucuGGuGcuGuGUU (sense CACAGCACCAGAAUGUAUATT; antisense UAUACAUUCUGGUGCUGUGUU; sense: DNA at AGT, 2'-fluoro at CU, [invAb] at 5' end, 3' end, backbone not given here; antisense: sugars from the 5' end rrrmfmffffmmfmffmfmmm, backbone not given here)",19 ± 3%,82 ± 11%,0.56 ± 0.3,0.13 ± 0.08,0.11 ± 0.10,82 ± 11%
"48048-DC: siNA duplex; sense SEQ ID NO: 61 B GAuAGcAucuuAuAcGAGu TTB; antisense SEQ ID NO: 62 ACUcGuAuAAGAuGcuAucUU (sense GAUAGCAUCUUAUACGAGUTT; antisense ACUCGUAUAAGAUGCUAUCUU; sense: DNA at AGT, 2'-fluoro at CU, [invAb] at 5' end, 3' end, backbone not given here; antisense: sugars from the 5' end rrrfmfmfmmmmfmffmffmm, backbone not given here)",21 ± 5%,83 ± 10%,0.31 ± 0.2,0.09 ± 0.06,0.10 ± 0.10,83 ± 10%
"48042-DC: siNA duplex; sense SEQ ID NO: 49 B GAcAuuAAcucAuuAGAcu TTB; antisense SEQ ID NO: 50 AGUcuAAuGAGuuAAuGucUU (sense GACAUUAACUCAUUAGACUTT; antisense AGUCUAAUGAGUUAAUGUCUU; sense: DNA at AGT, 2'-fluoro at CU, [invAb] at 5' end, 3' end, backbone not given here; antisense: sugars from the 5' end rrrffmmfmmmffmmfmffmm, backbone not given here)",30 ± 4%,86 ± 13%,0.45 ± 0.13,0.11 ± 0.06,0.09 ± 0.11,86 ± 13%
"48055-DC: siNA duplex; sense SEQ ID NO: 75 B cAAGuuAuuuAAAucuGuu TTB; antisense SEQ ID NO: 76 AACAGAuuuAAAuAAcuuGUU (sense CAAGUUAUUUAAAUCUGUUTT; antisense AACAGAUUUAAAUAACUUGUU; sense: DNA at AGT, 2'-fluoro at CU, [invAb] at 5' end, 3' end, backbone not given here; antisense: sugars from the 5' end rrrmmmfffmmmfmmfffmmm, backbone not given here)",24 ± 2%,84 ± 5%,0.28 ± 0.04,0.10 ± 0.06,0.09 ± 0.04,84 ± 5%
